Values of other authors in patent US10071030B2, “Carrier comprising non-neutralised tocopheryl phosphate” (Phosphagenics Limited, priority 2010, dated 2018).

Conditions: from dietary sources

COC1=C(OC)C(=O)C(C/C=C(\C)CC/C=C(\C)CC/C=C(\C)CC/C=C(\C)CC/C=C(\C)CC/C=C(\C)CC/C=C(\C)CC/C=C(\C)CC/C=C(\C)CCC=C(C)C)=C(C)C1=O [CoQ10, ubiquinone]
bioavailable fraction of CoQ10: 5 to 10%
